Test results: patent US11591336B2 (Relay Therapeutics, Inc., priority 2017, dated 2023)
Where a name gives a salt, the structure may show the parent alone.

Each molecule was assayed against SHP2 (Homo sapiens (Human), UniProt Q06124) (assay: SHP2 Allosteric Inhibition Assay (DiFMUP prompt fluorescence)). Details: 0.25 nM SHP2 activated with 0.5 μM peptide IRS1_pY1172(dPEG8)pY1222; substrate DiFMUP 100 μM; 25° C.
Type: biochemical

IC50, < 1000 nM:
CNc1nccc(Sc2n[nH]c3nc(N4CCC(C)(N)CC4)cnc23)c1Cl [Compound 497, 4-((6-(4-amino-4-methylpiperidin-1-yl)-1H-pyrazolo[3,4-b]pyrazin-3-yl)thio)-3-chloro-N-methylpyridin-2-amine hydrochloride]
CC1(CN)CCN(c2cnc3c(Nc4ccnc(N)c4Cl)n[nH]c3n2)CC1 [Compound 498, N^4-(6-(4-(aminomethyl)-4-methylpiperidin-1-yl)-1H-pyrazolo[3,4-b]pyrazin-3-yl)-3-chloropyridine-2,4-diamine]
CC1(CN)CCN(c2cnc3c(Nc4ccnc(Cl)c4Cl)n[nH]c3n2)C1 (stereo not shown) [Compound 499, 6-(3-(Aminomethyl)-3-methylpyrrolidin-1-yl)-N-(2,3-dichloropyridin-4-yl)-1H-pyrazolo[3,4-b]pyrazin-3-amine]
CC1(CN)CCN(c2cnc3c(Nc4ccnc(Cl)c4Cl)n[nH]c3n2)CC1 [Compound 500, 6-(4-(Aminomethyl)-4-methylpiperidin-1-yl)-N-(2,3-dichloropyridin-4-yl)-1H-pyrazolo[3,4-b]pyrazin-3-amine hydrochloride]
CC1(N)CCN(c2cnc3c(Oc4ncccc4Cl)n[nH]c3n2)CC1 [Compound 502, 1-(3-((3-chloropyridin-2-yl)oxy)-1H-pyrazolo[3,4-b]pyrazin-6-yl)-4-methylpiperidin-4-amine dihydrochloride]
Cc1nccc(Oc2n[nH]c3nc(N4CCC(C)(CN)CC4)cnc23)c1Cl [Compound 504, (1-(3-((3-chloro-2-methylpyridin-4-yl)oxy)-1H-pyrazolo[3,4-b]pyrazin-6-yl)-4-methylpiperidin-4-yl)methanamine]
Cn1cc(-c2nccc(Oc3n[nH]c4nc(N5CCC(C)(CN)CC5)cnc34)c2Cl)cn1 [Compound 506, (1-(3-((3-chloro-2-(1-methyl-1H-pyrazol-4-yl)pyridin-4-yl)oxy)-1H-pyrazolo[3,4-b]pyrazin-6-yl)-4-methylpiperidin-4-yl)methanamine]
CC1(N)CCN(c2cnc3c(Oc4cccnc4Cl)n[nH]c3n2)CC1 [Compound 510, 1-(3-((2-chloropyridin-3-yl)oxy)-1H-pyrazolo[3,4-b]pyrazin-6-yl)-4-methylpiperidin-4-amine]
Cn1ccc(Sc2n[nH]c3nc(N4CCC(C)(CN)CC4)cnc23)cc1=O [Compound 511, 4-((6-(4-(aminomethyl)-4-methylpiperidin-1-yl)-1H-pyrazolo[3,4-b]pyrazin-3-yl)thio)-1-methylpyridin-2(1H)-one]
C[C@@H]1OCC2(CCN(c3cnc4c(Oc5ccnc(Cl)c5Cl)n[nH]c4n3)CC2)[C@@H]1N [Compound 512, (3S,4S)-8-(3-((2,3-dichloropyridin-4-yl)oxy)-1H-pyrazolo[3,4-b]pyrazin-6-yl)-3-methyl-2-oxa-8-azaspiro[4.5]decan-4-amine]
CC1(CN)CCN(c2cnc3c(Sc4ccn5nccc5c4)n[nH]c3n2)CC1 [Compound 513, (4-methyl-1-(3-(pyrazolo[1,5-a]pyridin-5-ylthio)-1H-pyrazolo[3,4-b]pyrazin-6-yl)piperidin-4-yl)methanamine]
CC1(CN)CCN(c2cnc3c(Sc4ccnc5[nH]ccc45)n[nH]c3n2)CC1 [Compound 515, (1-(3-((1H-pyrrolo[2,3-b]pyridin-4-yl)thio)-1H-pyrazolo[3,4-b]pyrazin-6-yl)-4-methylpiperidin-4-yl)methanamine]
CC1(CN)CCN(c2cnc3c(Sc4ccc5cccnc5c4Cl)n[nH]c3n2)CC1 [Compound 516, (1-(3-((8-chloroquinolin-7-yl)thio)-1H-pyrazolo[3,4-b]pyrazin-6-yl)-4-methylpiperidin-4-yl)methanamine]
Cc1nccc(Oc2n[nH]c3nc(N4CCC5(CC4)CO[C@@H](C)[C@H]5N)cnc23)c1Cl [Compound 517, (3S,4S)-8-(3-((3-chloro-2-methylpyridin-4-yl)oxy)-1H-pyrazolo[3,4-b]pyrazin-6-yl)-3-methyl-2-oxa-8-azaspiro[4.5]decan-4-amine]
CC1(CN)CCN(c2cnc3c(Oc4cc(N)nc(Cl)c4Cl)n[nH]c3n2)CC1 [Compound 518, 4-((6-(4-(aminomethyl)-4-methylpiperidin-1-yl)-1H-pyrazolo[3,4-b]pyrazin-3-yl)oxy)-5,6-dichloropyridin-2-amine hydrochloride]
C[C@@H]1OCC2(CCN(c3cnc4c(N5CCCc6c5ccc(C#N)c6[C@@H]5CC(=O)N(C)C5)n[nH]c4n3)CC2)[C@@H]1N [Compound 519]
C[C@@H]1OCC2(CCN(c3cnc4c(N5CCCc6c([C@H]7CC(=O)N(C)C7)cccc65)n[nH]c4n3)CC2)[C@@H]1N [Compound 521]
C[C@@H]1OCC2(CCN(c3cnc4c(N5CCCc6c5ccc(C#N)c6[C@@H]5CCCO5)n[nH]c4n3)CC2)[C@@H]1N [Compound 522]
C[C@@H]1OCC2(CCN(c3cnc4c(N5CCCc6c([C@@H]7CC(=O)N(C)C7)cccc65)n[nH]c4n3)CC2)[C@@H]1N [Compound 523]
C[C@@H]1OCC2(CCN(c3cnc4c(N5CCCc6c5ccc(C#N)c6[C@H]5CCCO5)n[nH]c4n3)CC2)[C@@H]1N [Compound 524]
C[C@@H]1OCC2(CCN(c3cnc4c(N5CCCc6c5ccc(C#N)c6[C@H]5CC(=O)N(C)C5)n[nH]c4n3)CC2)[C@@H]1N [Compound 525]
C[C@@H]1OCC2(CCN(c3cnc4c(N5CCN([C@H]6C[C@@](C)(O)C6)c6cc(C#N)ccc65)n[nH]c4n3)CC2)[C@@H]1N [Compound 526]
C[C@@H]1OCC2(CCN(c3cnc4c(N5CCN([C@H]6C[C@](C)(O)C6)c6cc(C#N)ccc65)n[nH]c4n3)CC2)[C@@H]1N [Compound 527]
C[C@@H]1OCC2(CCN(c3cnc4c(N5CCCc6c5ccc(C#N)c6CC#N)n[nH]c4n3)CC2)[C@@H]1N [Compound 528]
C[C@@H]1OCC2(CCN(c3cnc4c(N5CCN(CCF)c6cc(C#N)ccc65)n[nH]c4n3)CC2)[C@@H]1N [Compound 529]
C[C@@H]1OCC2(CCN(c3cnc4c(N5CCN(C6CC(F)(F)C6)c6cc(C#N)ccc65)n[nH]c4n3)CC2)[C@@H]1N [Compound 530]
C[C@@H]1OCC2(CCN(c3cnc4c(N5CCCc6ncsc65)n[nH]c4n3)CC2)[C@@H]1N [Compound 531]
C[C@@H]1OCC2(CCN(c3cnc4c(N5CCN(C67CC(F)(C6)C7)c6cc(C#N)ccc65)n[nH]c4n3)CC2)[C@@H]1N [Compound 532]

IC50, ≥ 10000 nM:
Cn1nc(Oc2ccnc(Cl)c2Cl)c2ncc(N3CCC(C)(CN)CC3)nc21 [Compound 501, (1-(3-((2,3-dichloropyridin-4-yl)oxy)-1-methyl-1H-pyrazolo[3,4-b]pyrazin-6-yl)-4-methylpiperidin-4-yl)methanamine]
CC1(N)CCN(c2cnc3c(Oc4cnccc4N)n[nH]c3n2)CC1 [Compound 507, 3-((6-(4-Amino-4-methylpiperidin-1-yl)-1H-pyrazolo[3,4-b]pyrazin-3-yl)oxy)pyridin-4-amine hydrochloride]

IC50, 1000 to 10000 nM:
CC1(CN)CCN(c2cnc3c(Oc4ccc5[nH]ccc5c4)n[nH]c3n2)CC1 [Compound 505, (1-(3-((1H-indol-5-yl)oxy)-1H-pyrazolo[3,4-b]pyrazin-6-yl)-4-methylpiperidin-4-yl)methanamine]
CC1(N)CCN(c2cnc3c(Oc4cccnc4N)n[nH]c3n2)CC1 [Compound 508, 3-((6-(4-Amino-4-methylpiperidin-1-yl)-1H-pyrazolo[3,4-b]pyrazin-3-yl)oxy)pyridin-2-amine hydrochloride]
CC1(N)CCN(c2cnc3c(Oc4cnccc4Cl)n[nH]c3n2)CC1 [Compound 509, 1-(3-((4-Chloropyridin-3-yl)oxy)-1H-pyrazolo[3,4-b]pyrazin-6-yl)-4-methylpiperidin-4-amine hydrochloride]
CO[C@H]1C[C@H](N2CCN(c3n[nH]c4nc(N5CCC6(CC5)CO[C@@H](C)[C@H]6N)cnc34)c3ccc(C#N)cc32)C1 [compound 472]
